Here are results for two compounds from paper PMC10041525, “New Dual Inhibitors of Bacterial Topoisomerases with Broad-Spectrum Antibacterial Activity and In Vivo Efficacy against Vancomycin-Intermediate Staphylococcus aureus” (Journal of Medicinal Chemistry, 2023).

The subject of data set [1] is A. baumannii BM4652 and NMI clinical isolates. Description: MIC, wild-type, efflux-defective and MDR clinical isolates. Format: cell-based. Conditions: Acinetobacter baumannii.
The next data set in a line: in vitro. The conditions noted are these: mouse. As for the experimental part: The assay was performed in cryopreserved mouse hepatocytes. First, the vials were thawed, the suspension added to “thawing media” and centrifuged to pellet the hepatocytes. The cell pellet was resuspended in Williams medium E (Invitrogen A1217601). […] A mixture of midazolam, diclofenac, and bufuralol at 1 μM was used as a positive control. The incubation was carried out on a heater-shaker at 37 °C, in a 24-well Picoplate (round bottom, PerkinElmer), with total incubation volume of 700 μL. […] The plate was incubated at 37 °C for 60 s. A zero sample was taken by removing 100 μL to a 96-well plate, and the reaction was quenched by adding 100 μL of acetonitrile with 50 nM warfarin as the internal standard. […] The LC–MS/MS method was the same as described above in Chapter LogD Determination.

Data set [2] addresses T1, human DNA topoisomerase IIα (Homo sapiens, UniProt P11388).
T1 construct: purchased Inspiralis
In words: DNA relaxation assay. Type of data set: biochemical. As for the experimental part: Seven concentrations of the inhibitors were used to determine IC50 values which were then calculated with GraphPad Prism 6.0 software. Three independent measurements were performed to determine IC50 values, and mean values are reported as the final result.

In the next data set the test system is MCF-7 cell line. Description: MTS cytotoxicity assay. Format: cell-based, human. As for the experimental part: (§1) Briefly, Eagle’s minimum essential medium (Gibco, Thermo Fisher Scientific, Waltham, MA, USA) was used to culture the cells. The following supplements were added to the medium: L-glutamine (2 mM; Sigma-Aldrich, St. Louis, MO, USA), penicillin (100 U/mL; Sigma-Aldrich, St. Louis, MO, USA), streptomycin (100 μg/mL; Sigma-Aldrich, St. Louis, MO, USA), and fetal bovine serum (10%; Gibco, Thermo Fisher Scientific, Waltham, MA, USA). The cells were maintained at 37 °C in a humidified 5% CO2 atmosphere. The cells were plated in 96-well plates at a density of 2000 cells per well and incubated for 24 h. Then, the cells were treated with selected compounds, positive control (50 μM etoposide), or vehicle control (0.5% DMSO) and incubated for 72 h. The CellTiter96 Aqueous One Solution Reagent (10 μL; Promega, Madison, WI, USA) was then added to each well, and the plate was incubated for another 3 h. Absorbance at 490 nm was measured with a BioTek Synergy 4 Hybrid Microplate Reader (Winooski, VT, USA). Independent experiments were repeated three times, each performed in triplicate. Statistical significance (p < 0.05) was calculated with two-tailed Student’s t test between treated groups and DMSO. IC50 values (concentration of the compound that gives a half-maximal response) are given as average values from the independent measurements and were determined using GraphPad Prism 5.0 software (San Diego, CA, USA)

In the next data set the test system is HepG2 cell line. In words: MTS cytotoxicity assay. Format: cell-based, human. The protocol:
as §1

Data set [3] concerns the target T2, hERG potassium ion channel (Homo sapiens, UniProt Q12809).
T2 construct: expressed in transfected cells; host or cells: CHO cells (stably transfected)
In words: patch-clamp on transfected CHO cells. Format: cell-based. The protocol: (§2) hERG and NaV1.5 inhibition was measured with the patch-clamp method on stably transfected CHO cells according to previously described procedures.[34] […] The normalized hERG/NaV1.5 current is reported as mean ± standard error of the mean (SEM, N = 5–6).
A general note: The patch-clamp technique gives a direct electrical read-out from membranes.

The target of data set [4] is T3, sodium Nav1.5 ion channel (Homo sapiens, UniProt Q14524).
T3 construct: expressed in transfected cells; host or cells: CHO cells (stably transfected)
T3 sequence (Q14524 whole entry): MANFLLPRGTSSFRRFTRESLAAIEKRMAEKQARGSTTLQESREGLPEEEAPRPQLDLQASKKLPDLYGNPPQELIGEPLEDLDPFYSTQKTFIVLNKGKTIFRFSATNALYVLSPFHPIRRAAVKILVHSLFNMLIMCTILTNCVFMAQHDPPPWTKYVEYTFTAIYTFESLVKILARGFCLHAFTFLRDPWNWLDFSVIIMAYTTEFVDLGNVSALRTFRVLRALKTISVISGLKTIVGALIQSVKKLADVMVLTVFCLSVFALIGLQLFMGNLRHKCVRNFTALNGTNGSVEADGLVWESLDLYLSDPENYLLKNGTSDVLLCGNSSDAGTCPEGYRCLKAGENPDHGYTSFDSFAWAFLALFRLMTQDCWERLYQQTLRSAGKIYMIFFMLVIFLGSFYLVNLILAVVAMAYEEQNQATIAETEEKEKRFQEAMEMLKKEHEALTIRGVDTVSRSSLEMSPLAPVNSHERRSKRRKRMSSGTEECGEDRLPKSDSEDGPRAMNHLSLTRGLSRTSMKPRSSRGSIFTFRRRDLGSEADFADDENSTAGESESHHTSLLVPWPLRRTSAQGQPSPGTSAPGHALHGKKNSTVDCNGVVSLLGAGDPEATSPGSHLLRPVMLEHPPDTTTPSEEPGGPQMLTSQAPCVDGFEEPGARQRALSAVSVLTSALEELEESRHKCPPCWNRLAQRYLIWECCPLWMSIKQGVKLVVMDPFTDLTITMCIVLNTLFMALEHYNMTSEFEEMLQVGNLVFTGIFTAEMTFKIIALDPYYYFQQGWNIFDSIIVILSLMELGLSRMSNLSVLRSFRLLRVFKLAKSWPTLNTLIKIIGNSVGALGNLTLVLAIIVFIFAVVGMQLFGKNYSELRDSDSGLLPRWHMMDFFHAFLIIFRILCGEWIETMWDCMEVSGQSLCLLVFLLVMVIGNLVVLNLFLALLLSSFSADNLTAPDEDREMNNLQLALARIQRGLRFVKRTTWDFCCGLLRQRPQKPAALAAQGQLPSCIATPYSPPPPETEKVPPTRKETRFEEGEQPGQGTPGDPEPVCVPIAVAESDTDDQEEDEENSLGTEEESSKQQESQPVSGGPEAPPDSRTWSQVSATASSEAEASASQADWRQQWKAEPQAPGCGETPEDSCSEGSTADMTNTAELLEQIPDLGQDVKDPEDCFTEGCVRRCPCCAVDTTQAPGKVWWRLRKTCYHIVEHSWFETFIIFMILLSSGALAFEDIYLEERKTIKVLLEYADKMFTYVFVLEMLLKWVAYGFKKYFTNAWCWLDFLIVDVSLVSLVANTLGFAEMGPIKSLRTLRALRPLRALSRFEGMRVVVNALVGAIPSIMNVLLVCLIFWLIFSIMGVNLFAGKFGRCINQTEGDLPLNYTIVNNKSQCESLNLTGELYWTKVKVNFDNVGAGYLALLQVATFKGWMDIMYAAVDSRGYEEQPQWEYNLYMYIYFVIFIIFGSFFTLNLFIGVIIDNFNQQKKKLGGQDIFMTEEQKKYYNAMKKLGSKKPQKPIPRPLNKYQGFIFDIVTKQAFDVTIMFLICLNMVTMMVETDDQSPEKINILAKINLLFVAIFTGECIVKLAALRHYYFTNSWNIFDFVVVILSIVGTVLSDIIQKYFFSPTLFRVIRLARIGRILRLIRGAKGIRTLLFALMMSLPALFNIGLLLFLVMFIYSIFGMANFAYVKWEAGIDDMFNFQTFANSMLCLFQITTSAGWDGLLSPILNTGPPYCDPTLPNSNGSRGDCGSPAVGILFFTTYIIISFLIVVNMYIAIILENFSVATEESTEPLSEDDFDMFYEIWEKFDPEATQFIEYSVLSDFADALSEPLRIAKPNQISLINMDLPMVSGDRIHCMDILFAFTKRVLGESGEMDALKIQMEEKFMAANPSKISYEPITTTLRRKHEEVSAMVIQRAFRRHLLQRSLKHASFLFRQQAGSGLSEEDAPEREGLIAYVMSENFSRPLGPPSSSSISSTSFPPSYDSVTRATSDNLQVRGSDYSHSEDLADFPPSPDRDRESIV
Description: patch-clamp on transfected CHO cells. Format: cell-based. As for the experimental part: as §2

In the next data set the test system is P. aeruginosa PAO1. In words: MIC broth microdilution (CLSI). Conditions: Pseudomonas aeruginosa; PAO1 used for 7l, 8b, 14, 16b, 16c. Format: cell-based. As for the experimental part:
(§3) MICs (Tables 1 and S1–S3) were determined with a standard serial broth microdilution technique according to Clinical and Laboratory Standards Institute (CLSI) guidelines.[45] Cation-adjusted Mueller Hinton broth 2 (MHBII) was used for bacterial growth under standard laboratory conditions and for antimicrobial susceptibility tests. MHBII broth was prepared by dissolving 22 g of MHBII powder [containing beef extract (3 g), acid hydrolysate of casein (17.5 g), and starch (1.5 g); Becton Dickinson and Co.] in 1 L of water. To prepare MHBII agar, 14 g of agar (Bacto; Molar Chemicals) was added to 1 L of broth.
(§4) Bacterial strains were inoculated onto MHBII agar plates and grown overnight at 37 °C. Next, three individual colonies from each strain were inoculated into 1 mL of MHBII medium and propagated at 37 °C overnight, with agitation at 250 rpm. For Enterococcus sp., the cells were plated in brain–heart infusion [(BHI) medium] agar plates, and BHI broth was used to determine the MICs. […] The highest final DMSO concentration in the experiments was 0.64% (in the case of the 64 μg/mL concentration of the inhibitor). Following the dilutions, each well was seeded with 5 × 10^4 bacterial cells (in 100 μL final volume). Each measurement was performed in three parallel replicates, and to avoid possible edge effects in the microwell plates, the outside rows (A, H) were filled with sterile medium. Following the inoculations, the plates were covered with the lids and wrapped in polyethylene plastic bags, to minimize evaporation but to allow O2 transfer. The plates were incubated at 37 °C under continuous shaking at 150 rpm for 18 h. After incubation, the OD600 of each well was measured using a microplate reader (Synergy 2; Biotek). The MICs were defined as the antibiotic concentrations which inhibited the growth of the bacterial cultures; that is, the drug concentration where the average OD600 increment of the three technical replicates was below 1.5-fold the background OD increment.
(§5) cMIC, minimum inhibitory concentration
(§6) Bacterial strains that were used: S. aureus ATCC 29213, S. aureus (MRSA) ATCC 43300, S. aureus (VISA) ATCC 700699, E. faecalis ATCC 29212, E. faecium ATCC 700221,
(§7) E. coli ATCC 25922, P. aeruginosa ATCC 27853 (PAO1 for compounds 7l, 8b, 14), A. baumannii ATCC 17978 (ATCC 19606 for compounds 7l, 8b, 14), K. pneumoniae ATCC
(§8) Measurements were performed according to the Clinical and Laboratory Standards Institute guidelines, with three independent measurements.
(In general: Dilution methods test growth across graded concentrations, often in twofold steps.)

A further data set relates to K. pneumoniae ATCC 13883. Description: MIC broth microdilution (CLSI). Type of data set: cell-based. Conditions: Klebsiella pneumoniae, ATCC13883; ATCC 13883 used for 7l, 8b, 14, 16b, 16c. As for the experimental part:
as §3, §4, §5, §6, §7, §8

The structures appear in SMILES notation. Converted amounts (≈) assume the structure as drawn.

As a reminder, the MIC is the lowest concentration found to suppress growth. One may read the half-life as how long it takes for the measured level to halve. Read a low half-life as fast loss. One may read the hepatocyte CLint as the rate of metabolic loss divided by the concentration. Read a high hepatocyte CLint as rapid turnover. In general, IC50 refers to the concentration at which inhibition is half-maximal.

T2 sequence (Q12809 whole entry): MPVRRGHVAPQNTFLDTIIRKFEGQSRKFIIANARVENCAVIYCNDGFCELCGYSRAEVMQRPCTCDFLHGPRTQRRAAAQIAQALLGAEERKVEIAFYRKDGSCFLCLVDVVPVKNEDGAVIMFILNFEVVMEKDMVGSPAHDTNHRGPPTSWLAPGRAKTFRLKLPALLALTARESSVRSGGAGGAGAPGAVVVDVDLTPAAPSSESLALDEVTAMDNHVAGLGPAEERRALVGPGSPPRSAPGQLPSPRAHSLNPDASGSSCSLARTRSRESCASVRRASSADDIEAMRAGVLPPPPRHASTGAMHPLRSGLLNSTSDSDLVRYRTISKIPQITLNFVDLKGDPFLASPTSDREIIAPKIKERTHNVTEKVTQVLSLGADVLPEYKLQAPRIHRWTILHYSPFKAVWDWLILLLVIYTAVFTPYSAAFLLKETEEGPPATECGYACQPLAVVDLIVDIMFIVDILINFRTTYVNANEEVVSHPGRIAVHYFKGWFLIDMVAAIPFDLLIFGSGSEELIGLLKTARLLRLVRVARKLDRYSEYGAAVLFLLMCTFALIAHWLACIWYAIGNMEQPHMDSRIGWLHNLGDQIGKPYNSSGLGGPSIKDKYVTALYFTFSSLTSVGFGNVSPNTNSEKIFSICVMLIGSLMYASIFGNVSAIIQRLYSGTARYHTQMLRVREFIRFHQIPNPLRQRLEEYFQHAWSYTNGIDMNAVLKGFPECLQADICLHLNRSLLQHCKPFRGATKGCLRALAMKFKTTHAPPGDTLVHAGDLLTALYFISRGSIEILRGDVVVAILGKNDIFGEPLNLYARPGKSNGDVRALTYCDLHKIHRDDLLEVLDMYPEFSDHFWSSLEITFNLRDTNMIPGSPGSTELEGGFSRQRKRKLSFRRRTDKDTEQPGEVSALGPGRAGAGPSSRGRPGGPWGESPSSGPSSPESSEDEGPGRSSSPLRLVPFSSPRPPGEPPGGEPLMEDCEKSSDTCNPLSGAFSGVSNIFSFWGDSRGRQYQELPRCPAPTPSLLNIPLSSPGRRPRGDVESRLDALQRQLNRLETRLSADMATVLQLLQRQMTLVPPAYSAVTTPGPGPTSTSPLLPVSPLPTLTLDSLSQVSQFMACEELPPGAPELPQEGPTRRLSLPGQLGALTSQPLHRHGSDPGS
T1 sequence (P11388 whole entry): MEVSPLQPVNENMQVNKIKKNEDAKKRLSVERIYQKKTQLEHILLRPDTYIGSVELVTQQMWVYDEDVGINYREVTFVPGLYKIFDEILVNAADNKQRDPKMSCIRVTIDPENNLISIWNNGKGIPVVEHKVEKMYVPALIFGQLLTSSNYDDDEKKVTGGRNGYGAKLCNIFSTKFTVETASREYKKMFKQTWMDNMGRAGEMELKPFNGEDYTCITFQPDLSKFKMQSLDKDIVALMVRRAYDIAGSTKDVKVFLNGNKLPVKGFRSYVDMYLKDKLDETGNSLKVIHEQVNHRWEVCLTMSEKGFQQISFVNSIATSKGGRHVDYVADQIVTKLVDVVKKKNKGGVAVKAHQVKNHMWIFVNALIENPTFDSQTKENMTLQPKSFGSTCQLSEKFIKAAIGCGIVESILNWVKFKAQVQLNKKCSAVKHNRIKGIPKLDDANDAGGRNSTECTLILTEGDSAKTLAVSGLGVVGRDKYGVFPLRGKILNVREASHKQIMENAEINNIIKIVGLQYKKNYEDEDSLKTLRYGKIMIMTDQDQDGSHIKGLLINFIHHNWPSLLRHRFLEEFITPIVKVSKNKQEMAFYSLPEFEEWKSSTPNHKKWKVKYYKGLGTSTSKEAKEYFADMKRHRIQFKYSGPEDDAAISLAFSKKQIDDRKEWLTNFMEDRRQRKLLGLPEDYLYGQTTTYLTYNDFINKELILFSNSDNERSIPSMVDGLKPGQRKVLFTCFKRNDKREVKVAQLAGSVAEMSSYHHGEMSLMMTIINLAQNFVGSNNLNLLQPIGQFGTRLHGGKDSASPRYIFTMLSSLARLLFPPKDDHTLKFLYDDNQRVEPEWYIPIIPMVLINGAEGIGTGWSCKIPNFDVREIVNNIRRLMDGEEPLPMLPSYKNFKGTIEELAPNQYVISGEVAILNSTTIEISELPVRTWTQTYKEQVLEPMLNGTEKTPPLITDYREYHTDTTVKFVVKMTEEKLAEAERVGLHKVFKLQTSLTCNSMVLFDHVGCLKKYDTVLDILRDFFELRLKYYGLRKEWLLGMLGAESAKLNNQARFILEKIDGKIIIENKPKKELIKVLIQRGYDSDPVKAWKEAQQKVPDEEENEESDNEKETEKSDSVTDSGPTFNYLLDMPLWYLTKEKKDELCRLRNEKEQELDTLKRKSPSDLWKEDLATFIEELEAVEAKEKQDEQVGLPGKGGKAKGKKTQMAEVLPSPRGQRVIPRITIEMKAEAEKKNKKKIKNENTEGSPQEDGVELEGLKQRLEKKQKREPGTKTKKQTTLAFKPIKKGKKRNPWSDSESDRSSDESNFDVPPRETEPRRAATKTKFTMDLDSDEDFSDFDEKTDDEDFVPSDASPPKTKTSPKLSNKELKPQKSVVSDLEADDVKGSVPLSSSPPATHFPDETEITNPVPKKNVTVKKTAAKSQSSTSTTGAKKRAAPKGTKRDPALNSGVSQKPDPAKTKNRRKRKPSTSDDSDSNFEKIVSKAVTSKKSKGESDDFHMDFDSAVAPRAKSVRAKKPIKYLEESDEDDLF

Turning to `Cc1[nH]c(C(=O)Nc2nc3c(N4CCOCC4)cc(C(=O)O)cc3s2)c(Cl)c1Cl` [7a, 2-(3,4-Dichloro-5-methyl-1H-pyrrole-2-carboxamido)-4-morpholinobenzo[d]thiazole-6-carboxylic Acid], the MIC in data set [1] (A. baumannii BM4652, efflux-defective) was under 0.125 µg/mL; in data set [1] (A. baumannii NMI 2692/14, clinical MDR), 1 µg/mL (≈ 2.2 µM); in [1] (A. baumannii NMI 2699/14, clinical MDR) it was 1 µg/mL (≈ 2.2 µM); in data set [1] (A. baumannii NMI 2704/14, clinical MDR) it was 1 µg/mL (≈ 2.2 µM). In addition, the “ClH (pred.)” value in “in vitro” is reported as 0.05 mL/min. Moreover, in the data set “in vitro” (hepatocytes), the “Clint (pred. in vivo)” value stood at 2.1 mL/min. In addition, in the data set “in vitro” (hepatocytes), the half-life at 1.5 h, 1 µM is 2.67 h. In “in vitro” (hepatocytes), this compound returned a hepatocyte CLint at 1.5 h, 1 µM of 9 µL/min/1e6 cells. In data set [2], this compound came in with an IC50 of 17 µM. In addition, the “cytotoxic concentration (no cytotoxicity up to)” value in the data set on MCF-7 cell line (with serum, 72 h) is over 100 µM; with MCF-7 cell line (without fetal bovine serum), over 100 µM; with HepG2 cell line (with serum, 72 h), over 100 µM; in the data set on HepG2 cell line (without fetal bovine serum), over 100 µM. Further, in data set [3] (50 µM), the “inhibition of hERG” value is given as “no significant inhibition”. The “hERG current fraction (normalized to neg. control)” value in [3] (50 µM 7a, mean ± SEM) was 1.01 ± 0.02. For the same compound, the “inhibition of Nav1.5” value in [4] (10 µM) is on record as “no significant inhibition”. Also, in data set [4] (10 µM 7a, mean ± SEM), the “Nav1.5 current fraction (normalized to neg. control)” value was determined as 0.97 ± 0.03.

Regarding `Cc1[nH]c(C(=O)Nc2nc3c(N4CCOCC4)cc(C(=O)O)cc3s2)cc1F` [16b, 2-(4-Fluoro-5-methyl-1H-pyrrole-2-carboxamido)-4-morpholinobenzo[d]thiazole-6-carboxylic Acid], the minimal inhibitory concentration (MIC) in the data set on P. aeruginosa PAO1 and in the data set on K. pneumoniae ATCC 13883 was over 64 µg/mL in each case.
